Measured values published in PMC6789442, “Unraveling Hepcidin Plasma Protein Binding: Evidence from Peritoneal Equilibration Testing” (Pharmaceuticals, 2019).
Where two headings read alike, the source gives them in different places.

What was measured:
[1] = Solute concentration in peritoneal dialysate at 1 h dwell
Procedure: (§1) All were centrifuged at 2000 g for 10 min.
(§2) Measurements of urea, creatinine, and IgG were performed on a Cobas C8000 random access analyzer (Roche Diagnostics, Basel, Switzerland).
(§3) This MS-based assay determines total hepcidin (i.e., the sum of bound and unbound fraction). Peptide spectra were generated on a Microflex LT […] laser desorption/ionisation TOF MS platform (Bruker Daltonics, Hamburg, Germany). Hepcidin concentrations were expressed as nmol/L. The lower limit of quantification of this method was 0.5 nM.
Testosterone and cortisol in peritoneal dialysate were analyzed by LC-MS/MS after solid-phase extraction. Sample preparation consisted of internal standard addition [13C3]-testosterone (Isoscience, Ambler, PA, USA) and […] (Isoscience) to 1000 µL dialysate and solid phase extraction (SPE) using Oasis® MCX 1cc cartridges (Waters Corp, Milford, MA, USA).
Columns were pre-equilibrated with 1 mL MeOH:IPA (95:5) and subsequently washed with 1 mL H2O. After application of the sample, columns were washed with 1 mL H2O:NH4OH (95:5) and 1 mL MeOH:H2O (20/80) + 2% HCOOH. The 300 µL eluate (MeOH) was dried under a stream of N2 gas, reconstituted in MeOH:H2O (30:70). A nine-point calibration series was used (using testosterone and cortisol both from Steraloids). Calibrators, quality controls, and samples (reconstituted in 100 µL) were injected (10 µL) into an Agilent Technologies 1290 Infinity VL UHPLC-system (Agilent Technologies, Santa Clara, USA), equipped with a BEH C18 (1.7 μm 2.1 X 50 mm) analytical column (Waters Corp., Milford, MA, USA) at 60 °C. Mobile phase A (MeOH/H2O (20:80) + 2 mM NH4CH3COO + 0.1% HCOOH) and B (MeOH/H2O (98:2) + 2 mM NH4CH3COO + 0.1% HCOOH) were run in a gradient (0.4 mL/min). The gradient program was as follows: Start gradient A:B (70:30) for 2.5 min; followed by a gradient in 2 min to A:B (60:40) and subsequent 2.5 min A:B (35:65). For column washing, a gradient 0.5 min A:B (98:2) was established to remain such for 0.5 min. The column was re-equilibrated to A:B (70:30) in 0.5 min and remained such for 0.5 min. […] An Agilent 6490 tandem mass spectrometer (Agilent Technologies, Santa Clara, CA, USA) was operated in the electrospray positive ion mode. Operating conditions were as follows: Capillary voltage 3.5 kV, fragmentor voltage 380 V, sheath gas temperature 350 °C, and gas temperature 150 °C. The collision energy was optimized between 25 and 34 eV for all solutes and Nitrogen was used as collision gas. Two mass transitions were monitored for each analyte and the internal standards. The first transition was used for quantification, the second for confirmation. The transitions (Q1 > Q3) were m/z 289 > 97 and m/z 289 > 109 for testosterone; m/z 292 > 100 and m/z 292 > 112 for [13C3]-testosterone; m/z 363 > 121 and m/z 363 > 97 for cortisol; m/z 367 > 121 and m/z 367 > 97 for [3H4]-cortisol. Total run time was 9 min.
For both total and free cortisol PC calculations, we used total cortisol measurements in dialysate, since we assume that all cortisol present in dialysate after 1 h of dwell time is free considering the large MW of its main binding protein corticosteroid binding globulin (MW 52 kDa).

[2] = ESRD patients, serum at t = 0 h, equilibrium dialysis 5 h, 37 °C, 5 kDa membrane, HEPES buffer pH 7.40, LC-MS/MS, N = 9
Procedure: Serum was dialyzed in a multi-cell equilibrium dialyzer using Teflon dialyzing cells consisting of two identical parts between which a flat membrane is fitted (Dianorm-Geräte). The dialysis cells are incubated in a water bath with constant agitation by a rotating apparatus and temperature during dialysis was maintained at 37 ± 0.5 °C, by constant monitoring with an immersion thermostatic system (Tinytag TGP-4020 logger and PB5001-1M5 sonde; Gemini data loggers). The dialysis membranes were prepared from Dianorm (Diachema dialysis membranes 10.14) with a cut-off of 5 kDa. Equilibrium dialysis was performed for 5 h with 180 µL serum against 180 µL HEPES buffer; while rotating the dialysis apparatus at 20 rpm.

[3] = Solute concentration in blood (plasma/serum) before dialysis
Procedure: as §1, §2, §3
Cortisol and testosterone were analyzed by Liquid Chromatography-Mass Spectrometry (LC-MS/MS) after protein precipitation and solid-phase extraction. Internal standard [^2H4]-cortisol and [^13C3]-testosterone (Isoscience, Ambler, PA, USA) was added to 100 µL serum. Subsequently, 300 µL acetonitrile with 0.1% formic acid was added for protein precipitation and 300 µL H2O was added to 200 µL supernatant followed by solid phase extraction (Oasis HLB 1cc, Waters, Milford, MA, USA). The eluate (methanol:isopropanol 95:5) was dried under a stream of N2 gas, reconstituted in methanol:water (3:7) and injected (10 µL) into an Agilent Technologies 1290 Infinity Ultra High Performance Liquid Chromatography (UHPLC)-system (Agilent Technologies, Agilent, Santa Clara, CA, USA) equipped with a BEH C18 (1.7 μm 2.1 × 50 mm) analytical column (Waters Corp.) at 60 °C. Mobile phase A (methanol:water 20:80 + 2 mM NH4CH3COO + 0.1% formic acid) and B (methanol:water 98:2 + 2 mM NH4CH3COO + 0.1% formic acid) were run in a gradient (0.4 mL/min). Start gradient 70:30 A:B for 2.5 min; then to 40:60 A:B in 3.5 min; followed by a gradient in 0.5 min to 2:98 to remain such for 0.5 min and thereafter to 70:30 A:B in 0.5 min and remain such for 0.5 min. […] Total run time was 8 min. A 9-point calibration curve was used (cortisol and testosterone, Steraloids). An Agilent 6490 tandem mass spectrometer (Agilent Technologies, Agilent, Santa Clara, CA, USA) was operated in the electrospray positive ion mode, with a capillary voltage 3.5 kV, fragmentor voltage 380 V, sheath gas temperature 350 °C, and gas temperature 150 °C with N2 collision gas. Two transitions (qualitative and quantitative) were monitored. Transitions (Q1 > Q3) were m/z 363.4 > 97.1 (34 V) and m/z 363.4 > 121.1 (25 V) for cortisol; m/z 367.4 > 97.1 (34 V) and m/z 367.4 > 121.1 (25 V) for [2H4]-cortisol. m/z 289.2 > 109.1 […] and m/z 289.2 > 97.1 […] for testosterone; m/z 292.3 > 112.1 […] and m/z 292.3 > 100.1 […] for 13C3-testosterone. Dwell time was 100 ms and 50 ms for cortisol and testosterone, respectively.

plasma proteins = test: Plasma protein binding percentage calculated from measured vs expected peritoneal clearance (MW-clearance curve); type: in vivo, human; settings: (1 − measured PC / expected PC) × 100%; expected PC from Log10(PC) = 4.5744 – 0.05063 × cube root MW; ESRD patients in PET; mean (±sd)
Description: Logarithmic transformation was used for PC data before statistical analysis, as the data was not normally distributed. In addition, we used a cube root scaling for MW, since transport rates are related to size and thus radius (r), and considering volume as a three-dimensional characteristic of the radius (r^3). The curve describing the relation between MW and PC of all analytes was estimated with a linear mixed model using a random slope and random intercept. The expected PC of each analyte could be calculated using its MW and the equation of the curve. We calculated the binding percentage as:Binding percentage (%) = (1 − (Measured PC)/(Expected PC)) × 100%.(3)
In this equation, the measured PC divided by the expected PC represents the free hormone fraction. The strength of a linear association between the clearances of two analytes was measured using Spearman’s correlation coefficient.

[4] = Peritoneal clearance from peritoneal equilibration test (PET); settings: ESRD patients in PET; for Peritoneal Clearance t = 0–1 h Mean (sd): [Dialysate] t = 1 h / [Blood] t = 0 h × dialysate volume / 60 min, total blood concentration, N 14, 13 testosterone, 10 cortisol, 13 hepcidin
Procedure: (§4) Dialysate sampling was performed at 1 h of dwell time (t = 1 h), since peritoneal transport of solutes with a low MW (<200 Da) will decrease over a longer period of time due to saturation of the dialysate [22]. For sampling, all dialysate fluid was collected in a plastic (PVC) bag and mixed ex vivo before a sample was taken, to assure dialysate samples were representative for the fluid in the peritoneal cavity. Thereafter, the remaining dialysate was returned into the peritoneal cavity. […] Blood samples were drawn prior to dialysis (t = 0 h) in both heparin plasma and serum tubes. All were centrifuged at 2000 g for 10 min. Blood and dialysate samples were aliquoted and immediately stored at −80 °C until measurement.
(§5) Measurement results for solutes below the lower limit of detection (LLOD) were excluded.

[5] = in vivo
Procedure: as §4, §5

[6] = rapidly excreted by the kidneys; cited from earlier work
Description: Our finding that hepcidin is not predominantly bound is in line with other literature, in which a merely freely circulating hepcidin was observed using gel chromatography on human serum samples, followed by Liquid Chromatography-Mass Spectrometry (LC-MS/MS). In fact, other peptide hormones such as human growth hormone, insulin [28], and cardiac natriuretic hormones circulate freely, since peptide hormones are often water-soluble and can, therefore, easily be transported via the cardiovascular system without requiring carrier proteins. In addition, hepcidin is ...

[7] = peritoneal dialysate at 1 h dwell, 3.86% glucose solution, ESRD patients, total measurement, mean (sd), N 13 testosterone, 10 cortisol, 13 hepcidin

Row | Compound | [Dialysate] t = 1 h Mean (sd) [1, 7] | [Plasma] t = 0 h Mean (sd), total concentration ([3]; in vivo) | Binding percentage (protein-bound fraction) (plasma proteins) | Peritoneal Clearance t = 0–1 h Mean (sd) [5] | [Dialysate] t = 1 h Mean (sd) ([1]; in vivo) | Peritoneal Clearance t = 0–1 h Mean (sd) [4] | further results
1 | C[C@]12CCC(=O)C=C1CC[C@@H]1[C@@H]2[C@@H](O)C[C@@]2(C)[C@H]1CC[C@]2(O)C(=O)CO [Cortisol, cortisol] | 8.4 (5.8) nmol/L | 229.1 (134.4) nmol/L | 91% (±3%) | 1439.0 (490.8) µL/min |  |  | [Dialysate] t = 1 h Mean (sd), row of free cortisol ([1]; total cortisol measured in dialysate at 1 h, assumed to be all free, used for free cortisol clearance, mean (sd), N = 9): 8.4 (5.8) nmol/L; [Plasma] t = 0 h Mean (sd), free cortisol [2]: 12.7 (7.7) nmol/L; Peritoneal Clearance t = 0–1 h Mean (sd), free cortisol ([4]; calculated with free serum cortisol at t = 0 h and total cortisol in dialysate at 1 h, N = 9): 25,030.8 (8123.9) µL/min
2 | CN1CC(=O)NC1=N [Creatinine, creatinine] |  |  |  | 21,499.6 (5861.6) µL/min | 296.9 (119.9) µmol/L |  | [Plasma] t = 0 h Mean (sd) ([3]; in vivo): 542.0 (172.6) µmol/L
3 | C[C@]12CC[C@H]3[C@@H](CCC4=CC(=O)CC[C@@]43C)[C@@H]1CC[C@@H]2O [Testosterone, testosterone] | 0.1 (0.1) nmol/L |  | 97% (±1.5%) |  |  | 507.7 (260.5) µL/min | [Plasma] t = 0 h Mean (sd), total concentration ([3]; ESRD patients undergoing PET, blood at t = 0 h, total = free and protein-bound, cortisol/testosterone LC-MS/MS, hepcidin WCX-TOF MS, mean (sd), N 13 testosterone, 10 cortisol, 13 hepcidin): 8.6 (7.3) nmol/L
4 | NC(N)=O [Urea, urea] |  |  |  |  |  | 26,959.1 (6211.8) µL/min | [Dialysate] t = 1 h Mean (sd) ([1]; peritoneal dialysate at 1 h dwell, 3.86% glucose solution, ESRD patients, mean (sd), N = 14): 15.0 (6.1) mmol/L; [Plasma] t = 0 h Mean (sd) ([3]; ESRD patients on peritoneal dialysis undergoing PET, blood drawn before dialysis (t = 0 h), endogenous solute, mean (sd), N = 14): 21.5 (6.6) mmol/L
5 | hepcidin |  | 10.6 (9.1) nmol/L | 40% (±23%) |  | 1.2 (1.1) nmol/L | 4337.5 (1713.1) µL/min | half-life [6]: several hours
